This series deals with CCRIS mutagenicity, Ames/micronucleus/aberration tests. The series is described as follows: CCRIS mutagenicity studies.
[1] abbreviates: Test System: AMES SALMONELLA TYPHIMURIUM, Strain/Indicator: TA100, Metabolic Activation: NONE, Method: PREINCUBATION
The mark [2] stands for this setting: Test System: AMES SALMONELLA TYPHIMURIUM, Strain/Indicator: TA100, Metabolic Activation: NONE, Method: STANDARD PLATE.
Setting [3] is: Test System: AMES SALMONELLA TYPHIMURIUM, Strain/Indicator: TA1535, Metabolic Activation: NONE, Method: STANDARD PLATE.
Where [4] appears, read: Test System: AMES SALMONELLA TYPHIMURIUM, Strain/Indicator: TA98, Metabolic Activation: NONE, Method: STANDARD PLATE.

Activity calls are given as the source filed them. No rule for the calls is given here.

Consider `COc1cc(OC)c(OC)cc1C=O`, for which the mutagenic call is “inactive; negative” (Test System: AMES SALMONELLA TYPHIMURIUM, Strain/Indicator: TA98, Metabolic Activation: HAMSTER, LIVER, S-9, AROCLOR 1254 (10%), Method: PREINCUBATION); “inactive; negative” (Test System: AMES SALMONELLA TYPHIMURIUM, Strain/Indicator: TA98, Metabolic Activation: NONE, Method: PREINCUBATION); “inactive; negative” (Test System: AMES SALMONELLA TYPHIMURIUM, Strain/Indicator: TA98, Metabolic Activation: RAT, LIVER, S-9, AROCLOR 1254 (10%), Method: PREINCUBATION); “inactive; negative” (Test System: AMES SALMONELLA TYPHIMURIUM, Strain/Indicator: TA100, Metabolic Activation: HAMSTER, LIVER, S-9, AROCLOR 1254 (10%), Method: PREINCUBATION); “inactive; negative” under setting [1]; “inactive; negative” (Test System: AMES SALMONELLA TYPHIMURIUM, Strain/Indicator: TA100, Metabolic Activation: RAT LIVER S-9, AROCLOR 1254, Method: PREINCUBATION). Besides, the mutagenic call was “inactive; negative” (Test System: AMES SALMONELLA TYPHIMURIUM, Strain/Indicator: TA100, Metabolic Activation: RAT, LIVER, S-9, AROCLOR 1254 (10%), Method: PREINCUBATION); “inactive; negative” (Test System: AMES SALMONELLA TYPHIMURIUM, Strain/Indicator: TA102, Metabolic Activation: NONE, Method: PREINCUBATION); “inactive; negative” (Test System: AMES SALMONELLA TYPHIMURIUM, Strain/Indicator: TA102, Metabolic Activation: RAT LIVER S-9, AROCLOR 1254, Method: PREINCUBATION); “inactive; negative” (Test System: AMES SALMONELLA TYPHIMURIUM, Strain/Indicator: TA104, Metabolic Activation: NONE, Method: PREINCUBATION); “inactive; negative” (Test System: AMES SALMONELLA TYPHIMURIUM, Strain/Indicator: TA104, Metabolic Activation: RAT LIVER S-9, AROCLOR 1254, Method: PREINCUBATION); “inactive; negative” (Test System: AMES SALMONELLA TYPHIMURIUM, Strain/Indicator: TA1535, Metabolic Activation: HAMSTER, LIVER, S-9, AROCLOR 1254 (10%), Method: PREINCUBATION). The mutagenic call is “inactive; negative” (Test System: AMES SALMONELLA TYPHIMURIUM, Strain/Indicator: TA1535, Metabolic Activation: NONE, Method: PREINCUBATION); “inactive; negative” (Test System: AMES SALMONELLA TYPHIMURIUM, Strain/Indicator: TA1535, Metabolic Activation: RAT, LIVER, S-9, AROCLOR 1254 (10%), Method: PREINCUBATION); “inactive; negative” (Test System: AMES SALMONELLA TYPHIMURIUM, Strain/Indicator: TA1537, Metabolic Activation: HAMSTER, LIVER, S-9, AROCLOR 1254 (10%), Method: PREINCUBATION); “inactive; negative” (Test System: AMES SALMONELLA TYPHIMURIUM, Strain/Indicator: TA1537, Metabolic Activation: NONE, Method: PREINCUBATION); “inactive; negative” (Test System: AMES SALMONELLA TYPHIMURIUM, Strain/Indicator: TA1537, Metabolic Activation: RAT, LIVER, S-9, AROCLOR 1254 (10%), Method: PREINCUBATION); “active; positive. reevaluation of results: equivocal” (Test System: MOUSE LYMPHOMA, Strain/Indicator: L5178Y (TK+/TK-), Metabolic Activation: RAT, LIVER, S-9, AROCLOR 1254, Method: SUSPENSION/PLATE). Besides, under “Test System: Mouse lymphoma, Strain/Indicator: L5178Y (tk+/tk-), Metabolic Activation: None, Method: Suspension/plate”, the mutagenic call was “inactive; negative”.

`C[C@@H]1O[C@H]1C`: the mutagenic call reads like this: (Test System: AMES SALMONELLA TYPHIMURIUM, Strain/Indicator: TA100, Metabolic Activation: NONE, Method: FLASK VAPORIZATION) “active; positive”; under setting [2], “active; positive”; (Test System: AMES SALMONELLA TYPHIMURIUM, Strain/Indicator: TA100, Metabolic Activation: RAT, LIVER, S-9, AROCLOR 1254, Method: FLASK VAPORIZATION) “active; positive”; (Test System: AMES SALMONELLA TYPHIMURIUM, Strain/Indicator: TA1535, Metabolic Activation: NONE, Method: FLASK VAPORIZATION) “active; positive”; under setting [3], “active; positive”; (Test System: AMES SALMONELLA TYPHIMURIUM, Strain/Indicator: TA1535, Metabolic Activation: RAT, LIVER, S-9, AROCLOR 1254, Method: FLASK VAPORIZATION) “active; positive”.

Take `C=C1C[C@@]23CC[C@H]4[C@@](C)(CCC[C@@]4(C)C(=O)O[C@@H]4O[C@H](CO)[C@@H](O)[C@H](O)[C@H]4O)[C@@H]2CC[C@]1(O[C@@H]1O[C@H](CO)[C@@H](O)[C@H](O[C@@H]2O[C@H](CO)[C@@H](O)[C@H](O)[C@H]2O)[C@H]1O[C@@H]1O[C@H](CO)[C@@H](O)[C@H](O)[C@H]1O)C3`: the mutagenic call (Test System: AMES SALMONELLA TYPHIMURIUM, Strain/Indicator: TM677, Metabolic Activation: RAT, LIVER, S-9, AROCLOR 1254, Method: PREINCUBATION) was “inactive; negative”.

Consider `C\C=C(/C=C(C)/C=C(C)/C=C/C=C(\C)C(=O)[C@]12O[C@H]1[C@@](O)(CCO)NC2=O)C(=O)OC`, for which the mutagenic call runs as follows: (Test System: AMES SALMONELLA TYPHIMURIUM, Strain/Indicator: TA97A, Metabolic Activation: NONE, Method: STANDARD PLATE) “inactive; negative”; (Test System: AMES SALMONELLA TYPHIMURIUM, Strain/Indicator: TA97A, Metabolic Activation: RAT, LIVER, S-9, AROCLOR 1254, Method: STANDARD PLATE) “active; positive”; under setting [4], “inactive; negative”; (Test System: AMES SALMONELLA TYPHIMURIUM, Strain/Indicator: TA98, Metabolic Activation: RAT, LIVER, S-9, AROCLOR 1254, Method: STANDARD PLATE) “active; positive”; under setting [1], “active; positive”; under setting [2], “inactive; negative”. The mutagenic call is, setting by setting: (Test System: AMES SALMONELLA TYPHIMURIUM, Strain/Indicator: TA100, Metabolic Activation: RAT, LIVER, MICROSOMES, PHENOBARBITAL, Method: PREINCUBATION) “active; positive”; (Test System: AMES SALMONELLA TYPHIMURIUM, Strain/Indicator: TA100, Metabolic Activation: RAT, LIVER, S-9, AROCLOR 1254, Method: STANDARD PLATE) “active; positive”; (Test System: AMES SALMONELLA TYPHIMURIUM, Strain/Indicator: TA102, Metabolic Activation: NONE, Method: STANDARD PLATE) “inactive; negative”; (Test System: AMES SALMONELLA TYPHIMURIUM, Strain/Indicator: TA102, Metabolic Activation: RAT, LIVER, S-9, AROCLOR 1254, Method: STANDARD PLATE) “inactive; negative”.

On to `c1ccc2nc3c(cc2c1)-c1cccc2cccc-3c12`, for which the mutagenic call is “inactive; negative” under setting [4]; “inactive; negative” (Test System: AMES SALMONELLA TYPHIMURIUM, Strain/Indicator: TA98, Metabolic Activation: RAT, LIVER, S-9, Method: STANDARD PLATE); “inactive; negative” under setting [2]; “inactive; negative” (Test System: AMES SALMONELLA TYPHIMURIUM, Strain/Indicator: TA100, Metabolic Activation: RAT, LIVER, S-9, Method: STANDARD PLATE).

As to `CCCCC[C@@](C)(O)/C=C/[C@H]1[C@H](O)CC(=O)[C@@H]1C/C=C\CCCC(=O)O`, the mutagenic call under setting [4] was “inactive; negative”; the mutagenic call (Test System: AMES SALMONELLA TYPHIMURIUM, Strain/Indicator: TA98, Metabolic Activation: S-9, Method: STANDARD PLATE) is “inactive; negative”; the mutagenic call under setting [2] was “inactive; negative”; the mutagenic call (Test System: AMES SALMONELLA TYPHIMURIUM, Strain/Indicator: TA100, Metabolic Activation: S-9, Method: STANDARD PLATE) was “inactive; negative”; the mutagenic call under setting [3] was “inactive; negative”; the mutagenic call (Test System: AMES SALMONELLA TYPHIMURIUM, Strain/Indicator: TA1535, Metabolic Activation: S-9, Method: STANDARD PLATE) is “inactive; negative”. Also, the mutagenic call is, setting by setting: (Test System: AMES SALMONELLA TYPHIMURIUM, Strain/Indicator: TA1537, Metabolic Activation: NONE, Method: STANDARD PLATE) “inactive; negative”; (Test System: AMES SALMONELLA TYPHIMURIUM, Strain/Indicator: TA1537, Metabolic Activation: S-9, Method: STANDARD PLATE) “inactive; negative”; (Test System: AMES SALMONELLA TYPHIMURIUM, Strain/Indicator: TA1538, Metabolic Activation: NONE, Method: STANDARD PLATE) “inactive; negative”; (Test System: AMES SALMONELLA TYPHIMURIUM, Strain/Indicator: TA1538, Metabolic Activation: S-9, Method: STANDARD PLATE) “inactive; negative”; (Test System: E. COLI, Strain/Indicator: WP2 UVRA, Metabolic Activation: NONE, Method: STANDARD PLATE) “inactive; negative”; (Test System: E. COLI, Strain/Indicator: WP2 UVRA, Metabolic Activation: S-9, Method: STANDARD PLATE) “inactive; negative”.

(Values after PubChem BioAssay AID1259407 (Chemical Carcinogenesis Research Information System (CCRIS), 2018).)
